The record followed here is patent publication US9688642B2, “Substituted pyrazines as GPR40 agonists” (Janssen Pharmaceutica NV, priority 2014, dated 2017).

The target in one assay is human GPR40 (Homo sapiens (Human), UniProt O14842). The experiment in a line: GPR40 calcium flux assay, HEK293 cells stably expressing human GPR40. In kind it is cell-based. The conditions noted are these: transfected HEK293 cells stably expressing human GPR40; individual determinations listed; read-out: hGPR40 Ca2+ Assay EC50. The protocol:
(§1) Compounds were tested in a calcium flux assay using transfected HEK293 cells stably expressing either human GPR40 or rat GPR40. Human GPR40 expressing cells were cultured in DMEM-High Glucose media supplemented with 10% fetal bovine serum, 1×L-Glutamine, 1× Penicillin/Streptomycin and 500 μg/mL G418. Rat GPR40 expressing cells were cultured in DMEM-High Glucose media supplemented with 10% fetal bovine serum and 1 μg/mL puromycin. Cells were plated into poly-D-lysine coated 384-well plates and cultured overnight in a 37° C. humidified tissue culture incubator under 5% CO2/90% O2 atmosphere. On the day of the experiment, the culture media was replaced with assay buffer (HBSS, 20 mM HEPES, 0.1% BSA) and the cells incubated at 37° C. for 1 h. Calcium-sensitive fluorescent dye (Fluo 8 No-Wash Calcium Dye, ABD Bioquest) was then added and the cells incubated for another 30 min at 37° C. followed by 15 min at room temperature while protected from the light. The cell plate and a plate of diluted compounds of Formula (I) were loaded into a fluorescent plate reader that added compounds onto the cells while measuring the fluorescence intensity of each well. The plate reader recorded fluorescence intensity at 1 second intervals for 8 min and provided the data for analysis in an Excel format. EC50 values were calculated using Prism (GraphPad) software.

In the next assay the target is rat GPR40 (Rattus norvegicus (Rat), UniProt Q8K3T4). Put plainly: GPR40 calcium flux assay, HEK293 cells stably expressing rat GPR40. The class given is cell-based. The conditions noted are these: transfected HEK293 cells stably expressing rat GPR40; individual determinations listed; read-out: rGPR40 Ca2+ Assay EC50. The protocol: as §1

Several values for one entry are separate records, joined by “and”; a condition that tells them apart may be missing. Identical values can stand only once.

Chain of rat GPR40 (Q8K3T4 whole entry): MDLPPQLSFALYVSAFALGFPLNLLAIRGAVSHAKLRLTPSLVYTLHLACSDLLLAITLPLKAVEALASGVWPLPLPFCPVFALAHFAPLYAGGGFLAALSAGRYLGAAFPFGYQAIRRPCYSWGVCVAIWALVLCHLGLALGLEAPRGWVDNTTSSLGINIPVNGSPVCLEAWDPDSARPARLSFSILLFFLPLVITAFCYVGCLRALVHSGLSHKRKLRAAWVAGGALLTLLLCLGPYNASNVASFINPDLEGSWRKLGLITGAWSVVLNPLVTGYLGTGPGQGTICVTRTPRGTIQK
Chain of human GPR40 (O14842 whole entry): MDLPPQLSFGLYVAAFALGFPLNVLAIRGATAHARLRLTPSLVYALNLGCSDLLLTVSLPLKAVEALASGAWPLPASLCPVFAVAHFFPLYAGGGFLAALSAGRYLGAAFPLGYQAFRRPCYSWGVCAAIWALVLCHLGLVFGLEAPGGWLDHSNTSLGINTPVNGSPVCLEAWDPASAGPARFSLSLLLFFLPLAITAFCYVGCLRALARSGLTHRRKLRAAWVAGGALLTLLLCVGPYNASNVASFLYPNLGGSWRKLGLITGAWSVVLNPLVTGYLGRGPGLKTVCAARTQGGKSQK

For `COc1ccc(F)c(-c2ncc(COc3cccc([C@@H](CC(=O)O)C4CC4)c3)nc2OC(C)C)c1` [Cpd 29, (3S)-3-cyclopropyl-3-[3-[[5-(2-fluoro-5-methoxy-phenyl)-6-isopropoxy-pyrazin-2-yl]methoxy]phenyl]propanoic acid], the EC50 at human GPR40 was 39 nM and 30 nM and 21 nM and 26 nM and 23 nM; at rat GPR40, 73 nM (2×) and 56 nM and 98 nM and 62 nM.
In the case of `COc1cc(-c2ncc(COc3cccc([C@@H](CC(=O)O)C4CC4)c3)nc2C2=CCCC2(C)C)ccn1` [Cpd 31, (3S)-3-cyclopropyl-3-[3-[[6-(5,5-dimethylcyclopenten-1-yl)-5-(2-methoxy-4-pyridyl)pyrazin-2-yl]methoxy]phenyl]propanoic acid], the EC50 at human GPR40 was 32 nM and 26 nM; at rat GPR40, 102 nM and 66 nM.
With `COc1ccc(F)c(-c2ncc(COc3cccc([C@@H](CC(=O)O)C4CC4)c3)nc2OCCC(F)(F)F)c1` [Cpd 32, (3S)-3-cyclopropyl-3-[3-[[5-(2-fluoro-5-methoxy-phenyl)-6-(3,3,3-trifluoropropoxy)pyrazin-2-yl]methoxy]phenyl]propanoic acid], the EC50 on human GPR40 was 30 nM and 28 nM; at rat GPR40 it was 119 nM and 94 nM.
For `COc1ccc(F)c(-c2ncc(COc3cccc([C@@H](CC(=O)O)C4CC4)c3)nc2-c2sccc2C)c1` [Cpd 33, (3S)-3-cyclopropyl-3-[3-[[5-(2-fluoro-5-methoxy-phenyl)-6-(3-methyl-2-thienyl)pyrazin-2-yl]methoxy]phenyl]propanoic acid], the EC50 at human GPR40 is 34 nM and 27 nM; at rat GPR40 it was 120 nM and 110 nM and 100 nM and 82 nM.
Take `COc1ccc(F)c(-c2ncc(COc3cccc([C@@H](CC(=O)O)C4CC4)c3)nc2N(C)C(C)C)c1` [Cpd 34, (3S)-3-cyclopropyl-3-[3-[[5-(2-fluoro-5-methoxy-phenyl)-6-[isopropyl(methyl)amino]pyrazin-2-yl]methoxy]phenyl]propanoic acid]: the EC50 on human GPR40 was 33 nM and 30 nM; on rat GPR40 it was 112 nM and 104 nM and 88 nM and 86 nM.
`COc1cccc(-c2ncc(COc3cccc([C@@H](CC(=O)O)C4CC4)c3)nc2C2=CCCC2(C)C)c1` [Cpd 35, (3S)-3-cyclopropyl-3-[3-[[6-(5,5-dimethylcyclopenten-1-yl)-5-(3-methoxyphenyl)pyrazin-2-yl]methoxy]phenyl]propanoic acid]: the EC50 is 50 nM and 25 nM on human GPR40; 356 nM and 242 nM at rat GPR40.
Regarding `COc1ccc(F)c(-c2ncc(COc3cccc([C@@H](CC(=O)O)C4CC4)c3)nc2-c2ccc(C)s2)c1` [Cpd 36, (3S)-3-cyclopropyl-3-[3-[[5-(2-fluoro-5-methoxy-phenyl)-6-(5-methyl-2-thienyl)pyrazin-2-yl]methoxy]phenyl]propanoic acid], the EC50 is 40 nM and 38 nM at human GPR40; 118 nM and 109 nM and 105 nM and 86 nM on rat GPR40.
Take `COc1ccc(F)c(-c2ncc(COc3cccc([C@@H](CC(=O)O)C4CC4)c3)nc2C(C)C)c1` [Cpd 37, (3S)-3-cyclopropyl-3-[3-[[5-(2-fluoro-5-methoxy-phenyl)-6-isopropyl-pyrazin-2-yl]methoxy]phenyl]propanoic acid]: the EC50 was 45 nM and 44 nM at human GPR40; 141 nM and 109 nM at rat GPR40.
As for `COc1ccc(F)c(-c2ncc(COc3cccc([C@@H](CC(=O)O)C4CC4)c3)nc2N(C)C)c1` [Cpd 38, (3S)-3-cyclopropyl-3-[3-[[6-(dimethylamino)-5-(2-fluoro-5-methoxy-phenyl)pyrazin-2-yl]methoxy]phenyl]propanoic acid], the half-maximal effective concentration (EC50) on human GPR40 was 55 nM and 42 nM; at rat GPR40, 399 nM and 395 nM.
As to `COc1ccc(F)c(-c2ncc(COc3cccc([C@@H](CC(=O)O)C4CC4)c3)nc2C2CC2)c1` [Cpd 39, (3S)-3-cyclopropyl-3-[3-[[6-cyclopropyl-5-(2-fluoro-5-methoxy-phenyl)pyrazin-2-yl]methoxy]phenyl]propanoic acid], the EC50 was 130 nM and 98 nM and 64 nM and 50 nM on human GPR40; 395 nM and 358 nM and 247 nM and 208 nM on rat GPR40.
Consider `COc1ccc(F)c(-c2ncc(COc3cccc([C@@H](CC(=O)O)C4CC4)c3)nc2C(C)C(F)(F)F)c1` (stereo partly drawn) [Cpd 40, (3S)-3-cyclopropyl-3-[3-[[5-(2-fluoro-5-methoxy-phenyl)-6-(2,2,2-trifluoro-1-methyl-ethyl)pyrazin-2-yl]methoxy]phenyl]propanoic acid], for which the EC50 on human GPR40 was 64 nM and 52 nM; on rat GPR40, 253 nM and 249 nM and 236 nM and 227 nM.
Consider `COc1ccc(F)c(-c2ncc(COc3cccc([C@@H](CC(=O)O)C4CC4)c3)nc2OC2COC2)c1` [Cpd 41, (3S)-3-cyclopropyl-3-[3-[[5-(2-fluoro-5-methoxy-phenyl)-6-(oxetan-3-yloxy)pyrazin-2-yl]methoxy]phenyl]propanoic acid], for which the EC50 on human GPR40 was 79 nM and 69 nM; at rat GPR40, 553 nM and 416 nM.
For `COc1ccc(F)c(-c2ncc(COc3cccc([C@@H](CC(=O)O)C4CC4)c3)nc2OCC2CC(C)(C)C2)c1` [Cpd 42, (3S)-3-cyclopropyl-3-[3-[[6-[(3,3-dimethylcyclobutyl)methoxy]-5-(2-fluoro-5-methoxy-phenyl)pyrazin-2-yl]methoxy]phenyl]propanoic acid], the EC50 on human GPR40 is 17 nM and 14 nM; at rat GPR40 it was 32 nM and 29 nM.
In the case of `COc1ccc(F)c(-c2ncc(COc3cccc([C@@H](CC(=O)O)C4CC4)c3)nc2-c2ccc(C(C)(C)C)s2)c1` [Cpd 43, (3S)-3-[3-[[6-(5-tert-butyl-2-thienyl)-5-(2-fluoro-5-methoxy-phenyl)pyrazin-2-yl]methoxy]phenyl]-3-cyclopropyl-propanoic acid], the EC50 at human GPR40 was 15 nM and 12 nM; on rat GPR40 it was 81 nM and 55 nM.
In the case of `COc1ccc(F)c(-c2ncc(COc3cccc([C@@H](CC(=O)O)C4CC4)c3)nc2NCC(C)(C)C)c1` [Cpd 44, (3S)-3-cyclopropyl-3-[3-[[6-(2,2-dimethylpropylamino)-5-(2-fluoro-5-methoxy-phenyl)pyrazin-2-yl]methoxy]phenyl]propanoic acid], the EC50 on human GPR40 is 17 nM and 11 nM; on rat GPR40 it was 59 nM and 69 nM.
Consider `COc1ccc(F)c(-c2ncc(COc3cccc([C@@H](CC(=O)O)C4CC4)c3)nc2N2CCOCC2)c1` [Cpd 45, (3S)-3-cyclopropyl-3-[3-[[5-(2-fluoro-5-methoxy-phenyl)-6-morpholinopyrazin-2-yl]methoxy]phenyl]propanoic acid], for which the EC50 on human GPR40 is 34 nM; at rat GPR40, 138 nM and 134 nM.
Take `COc1cccc(-c2ncc(COc3cccc([C@@H](CC(=O)O)C4CC4)c3)nc2C2=CCCC2(C)C)c1F` [Cpd 46, (3S)-3-cyclopropyl-3-[3-[[6-(5,5-dimethylcyclopenten-1-yl)-5-(2-fluoro-3-methoxy-phenyl)pyrazin-2-yl]methoxy]phenyl]propanoic acid]: the EC50 is 130 nM and 127 nM at human GPR40; 637 nM and 788 nM on rat GPR40.
For `COc1cc(-c2ncc(COc3cccc([C@@H](CC(=O)O)C4CC4)c3)nc2OCC(C)(C)C)c(F)cn1` [Cpd 47, (3S)-3-cyclopropyl-3-[3-[[6-(2,2-dimethylpropoxy)-5-(5-fluoro-2-methoxy-4-pyridyl)pyrazin-2-yl]methoxy]phenyl]propanoic acid], the half-maximal effective concentration (EC50) on human GPR40 is 3 nM; at rat GPR40, 13 nM and 14 nM.
With `COc1cc(-c2ncc(COc3cccc([C@@H](CC(=O)O)C4CC4)c3)nc2OCC2CC2)c(F)cn1` [Cpd 48, (3S)-3-cyclopropyl-3-[3-[[6-(cyclopropylmethoxy)-5-(5-fluoro-2-methoxy-4-pyridyl)pyrazin-2-yl]methoxy]phenyl]propanoic acid], the EC50 on human GPR40 was 35 nM and 32 nM; on rat GPR40, 138 nM and 152 nM.
